This is an account of results in patent US20060008483A1, “Dispersions of lipids for use as therapeutic and cosmetic agents and intracellular delivery vehicles” (Biotech Tools SA, priority 2002, published 2006).

Structures are written as SMILES.

The subject of series [1] is Chinese hamster Ovary cells or K562 human myeloid cells. The conditions noted are these: MLV, WO 95/17378; cited from earlier work.
In series [2] the test system is COS-7L cells (monkey fibroblasts). Briefly: Transfection of fibroblast cells with micellar dispersions of an amidinium salt, beta-galactosidase activity assay. In kind it is cell-based. Conditions: pCMV-β plasmid, relative to Lipofectamine plus, 3 h + 20 h incubation. The procedure: Functional transfection efficiency was then measured by means of a beta-galactosidase (hereinafter referred as β-GAL) activity assay as follows: cells were lysed by adding 250 μl of a lysis buffer (0.1 M potassium phosphate, 0.5% Triton® X-100, 0.1% deoxycholate, pH 7.0). The cell lysate (50 μl) was mixed with 50 μl o-nitrophenyl-β-D-galactopyranoside (1.54 mg/ml in 0.1 potassium phosphate buffer, pH 7.0) and incubated at 37° C. for 30 minutes. The reaction was terminated by adding 160 μl of 1 M Na2CO3 and absorbance was determined using a spectrophotometer at 405 nm. β-GAL activity was calculated using a β-GAL standard curve.
Immediately before the transfection experiments, the amidinium salt of Example 9 was dissolved at a concentration of 0.1 mg/mL in water containing 5.0 g/l glucose and 0.1 mg/mL protamine sulfate. The solution was successively vortexed, heated during 15 minutes at 50° C. and then cooled at 20° C.
COS-7L cells (monkey fibroblasts) were grown in DMEM supplemented with 10% heat inactivated foetal bovine serum and penicellin 100 IU/mL-streptomycin 100 μg/mL, and were maintained at 37° C. in a humidified 5% incubator. […]
(§1) Transfection efficiency was measured in terms of beta-galactosidase activity using the beta-galactosidase activity assay described in Example 5 above. Cytotoxicity was determined as described in Example 2 above.

Series [3] has the same test system. Briefly: Cytotoxicity in the micellar transfection experiment, determined as in Example 2. In kind it is cell-based. Conditions: transfection conditions of Example 12. Here is the method: The resulting titrated liposomes were cooled and then passed through a 0.2 μm filter (in order to eliminate large particles) and an average liposome size of 90 nm was measured. Filtered liposomes were then packed in sterile vials and stored at 4° C. […] Cytotoxicity was determined by means of a (3-(4,5-dimethylthiazol-2-yl)-2,5-diphenyl tetrazolium bromide assay, using a kit commercially available from Promega Benelux (Leyden, The Netherlands). COS-7 monkey fibroblast cell survival was expressed as the amount of dye reduction relative to that of the untreated control cells. The titrated liposomes are not toxic on COS-7 cells, as determined by the Cytotox 96 non-radioactive cytotoxy assay G 1780.
COS-7L cells (monkey fibroblasts) were grown in DMEM supplemented with 10% heat inactivated foetal bovine serum and penicellin 100 IU/mL-streptomycin 100 μg/mL, and were maintained at 37° C. in a humidified 5% incubator. One day prior to the transfection experiment, the cells were seeded in a 24-well culture dish and allowed to reach at least 80% confluency.
as §1

The nature of series [4]: Critical micellar concentration by surface tension (langmuir balance). In kind it is physicochemical. Conditions: 25° C. Here is the method:
The amidinium salt of example 9 was dissolved at various concentrations in either water pH 7.0, PB (20 mM phosphate, pH 7.3) or in PBS (20 mM phosphate buffer, 150 mM NaCl, pH 7.3).
A langmuir balance (Krüss K12) was used to measure the surface tension of a solution of increasing amino-amidine concentration. […] The corresponding concentration was taken as CMC.
To determine the effect of protamine sulfate on the CMC protamine sulfate (PS) was added at a final concentration of 0.2 mg/mL to solutions of increasing concentration of the amidinium salt of Example 9.

Turning to `CCCCCCCCCCCCCCN=C(CCNCCCCCCCCCCCCCC)NC(C)(C)C` [DiC14iPr, N-terbutyl-N′-tetradecyl-3-tetradecyl-aminopropionamidine], the transfection efficiencies in series [1] is listed as 60 to 68%. The β-gal relative activity in series [2] was determined as 150%. In addition, the Toxicity result in series [3] was “None”.
For `CCCCCCCCCCCCCCN=C(CCNCCCCCCCCCCCCCC)NC(C)(C)C` [Example 9, N-terbutyl-N′-tetradecyl-3-tetradecyl-aminopropionamidine], the CMC in series [4] (in PB (20 mM phosphate, pH 7.3)) is 5.25e-05 M; in series [4] (in PBS (20 mM phosphate buffer, 150 mM NaCl, pH 7.3)), 6.75e-05 M; in series [4] (in PBS + protamine sulfate 0.2 mg/mL), 2e-05 M; in series [4] (in water pH 7.0, in M) it was 5×10^−4.
